In patent publication US12686664B2, “SOCE inhibitors and therapeutic uses thereof” (Institut National de la Santé et de la Recherche Médicale …, priority 2020, dated 2026):

Tested on: PANC-1 cells
Experiment: PANC-1 cell apoptosis (AnnexinV-FiTC/PI, flow cytometry)
Assay type: cell-based
Details: even at a concentration of 5 μM
Method: Analysis of Cell Apoptosis. For PANC-1 cell apoptosis measurements, 5×10^6 cells were seeded in 12 well-plates. Cells were incubated for 24 hours with a test compound (GSK-7975-A, SKF-93365 and 6αa) at two different concentrations (5 and 20 μM) compared to DMSO and untreated cells at 37° C. After washing, cells were taken off plates using an enzyme-free solution. Cells were centrifuged for 5 minutes at 1500 rpm and suspended in […] of PBS containing 1 μL of AnnexinV-FiTC and 1 μL of propidium iodide (PI) for 15 minutes at room temperature in the dark. Evaluation of Annexin and PI staining was performed using a flow cytometer (Navios, Beckman Counter) to evaluate cell apoptosis and necrosis.

In the case of COc1ccc(CCOc2ccc(CCn3cnc4ccccc43)cc2)cc1 [6αa DAD 3-473, 1-[4-(4-Methoxyphenethoxy)phenethyl]-1H-benzo[d]imidazole], the “PANC-1 cell death by apoptosis” value is reported as “induces PANC-1 cells by apoptosis”.
